Measured values from patent publication US9618453B2, “Aggregation induced emission of fluorescent bioprobes and methods of using the same” (THE HONG KONG UNIVERSITY OF SCIENCE AND TECHNOLOGY, priority 2011, dated 2017).
Blank lines part the entries; values can stand above or below the molecule they belong to.

Key:
[1] = molecular target: bovine serum albumin (BSA) (Bos taurus, UniProt P02769); assay: SDS-PAGE staining of BSA with TPENCS (prestaining, poststaining), compared with CBB and FITC; details: for self-quenching effect versus F/P ratio: equal amount of BSA, series of dye concentrations; for LOD / limit of detection (LOD): BSA on SDS-PAGE gel, CBB restaining of the same gel; for LOD: TPENCS poststaining; for limit of detection (LOD): TPENCS prestaining; for LOD on nitrocellulose membrane: after transfer from gel
Chain of bovine serum albumin (BSA) (P02769 25-607): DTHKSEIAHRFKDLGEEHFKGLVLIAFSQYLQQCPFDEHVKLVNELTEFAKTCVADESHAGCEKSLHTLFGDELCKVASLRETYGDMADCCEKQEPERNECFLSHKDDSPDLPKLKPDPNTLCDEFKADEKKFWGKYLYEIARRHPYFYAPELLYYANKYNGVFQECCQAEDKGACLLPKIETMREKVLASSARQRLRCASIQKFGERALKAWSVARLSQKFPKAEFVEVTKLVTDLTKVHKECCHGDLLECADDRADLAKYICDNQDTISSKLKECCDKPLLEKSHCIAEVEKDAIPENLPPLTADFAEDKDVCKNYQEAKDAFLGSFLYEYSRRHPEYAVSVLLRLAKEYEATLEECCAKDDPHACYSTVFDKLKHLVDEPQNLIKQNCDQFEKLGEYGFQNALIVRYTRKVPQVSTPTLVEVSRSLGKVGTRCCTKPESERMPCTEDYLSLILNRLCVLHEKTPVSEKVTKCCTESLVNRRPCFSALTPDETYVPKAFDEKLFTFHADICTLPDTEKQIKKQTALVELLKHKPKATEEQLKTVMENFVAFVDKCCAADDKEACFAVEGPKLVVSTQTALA
Method: The protein samples were treated with denaturizing 4× sample buffer containing 62.5 mM Tris (pH 8.5), 20% (v/v) glycerol, 4% SDS (w/v), and 3% (w/v) DTT for 5 min at 85˜95° C. in Protein Lobind Eppendorf cups. Serial dilutions of the proteins were labeled and loaded onto the gel lanes. Electrophoresis was carried out on self-cast polyacrylamide mini-gels (1 mm thick) using a discontinuous buffer system. The separation gel (pH 8.8) contained 12% polyacrylamide. The stacking gel (pH 6.8) contained 4% polyacrylamide. Both gels have an acrylamide/bis ratio of 37.5:1. The running buffer contained 25 mM Tris (pH 8.6), 192 mM glycine and 0.1% SDS (w/v) in water. All solutions were freshly prepared prior to use. SDS-PAGE was carried out on a vertical polyacrylamide gel system at a current of 15 mA until the protein bands reached the interface of the separating gel. Separation was performed at 100 V for two hours.
Fluorescence prestaining of proteins for SDS-PAGE gels was applied prior to the denaturation step. About 1 mg of the protein was dissolved in 1 mL of 0.1 M sodium bicarbonate buffer solution (15 μM). 10 μL of TPENCS DMSO stock solution (5 mM) was added to 100 μL protein solution. The pH was optimized to ˜9 by adding 1 M sodium bicarbonate buffer. The reaction mixture was incubated for 2 h at 37° C. in an Eppendorf Thermomixer. Then, samples were cooled either to room temperature for instant use or frozen for eventual use.
2.5 g of Coomassie blue R250 was dissolved in 1000 mL of 50% (v/v) methanol, 10% (v/v) acetic acid, and 40% (v/v) water with stirring as needed. The solution was filtered to remove any insoluble material. The final concentration of Coomassie blue R250 was 0.25% (w/v). After electrophoresis, the apparatus was disassembled and the gel was immerged into CBB solution. The gel was stained at room temperature overnight with gentle agitation. The Coomassie stain was removed by aspiration after staining. The gel was then immerged into the destaining solution composed of 50% (v/v) methanol, 10% (v/v) acetic acid, and 40% (v/v) water which allowed the gel to destain with gentle agitation. The destaining step was repeated several times, removing destaining solution at each change by aspiration. The destaining was continued until the protein bands were seen clearly without any background staining of the gel.
The protocol of gel fluorescent poststaining with TPENCS was similar to that of the CBB poststaining. The only difference was that the composition of the staining solution was prepared by mixing 1 mL DMSO stock solution of TPENCS (5 mM) with 20 mL 10% SDS aqueous (w/v) solution, and the pH was optimized to ˜9.0 by adding 1 M sodium bicarbonate buffer. The destaining solution was 10% SDS aqueous (w/v) solution. Similar to the destaining protocol of Coomassie brilliant blue, the gel was immerged into the 10% SDS aqueous (w/v) solution and destained with gentle agitation. The destaining solution was changed every two hours and the whole destaining process was finished within six hours.
Since nearly all kinds of proteins have reactive amine groups (lysine residues) on their molecular chains, bovine serum albumin (BSA), a commonly used protein, was employed as a test sample to verify the staining effect of TPENCS. The prestained BSA was loaded onto the gel lane b and a pure BSA sample was loaded on lane c at the same time as a control. After electrophoresis, the gel fluorescent image was taken under UV excitation within the Gel Doc XR+ documentation system (FIG. 2a). […] The gel was then introduced to the poststaining procedure and the fluorescent image was again obtained (FIG. 2b).

[2] = Photoluminescence in THF/water mixtures with different water fractions (aggregation induced emission); format: physicochemical
Description: The AIE of TPENCS is illustrated in FIG. 1. […] With water content ranging from 0-70%, the fluorescence intensity remained at a very low level. When the water concentration was in the 80-90 vol % range, a rapid and dramatic increase of the fluorescence intensity with increasing water content was observed (FIG. 1b). The PL intensity of TPENCS in the water/THF solution with a water fraction of 90 vol % was approximately 50-fold higher than that in the mixture with 70% water. The quantum efficiency of TPENCS was 52.2% in the solid state.
Similar to other AIE active molecules, TPEMBR only gave weak emission in good solvents such as THF. […] To quantify the effect of water content on the degree of fluorescent emission enhancement, the photoluminescence intensity of TPEMBR was measured where the fraction of water was increased from 0 to 90 vol %. With the water content in the range of 0-70%, the fluorescent intensity remained at a very low level. With the water fraction reaching the 80-90 vol % range, a rapid and dramatic increase of the fluorescent intensity was observed (FIG. 9b). The photoluminescence intensity of TPEMBR in the water/THF solution with a water fraction of 90 vol % was approximately 50-fold stronger than that in the mixture with 70% water. In the solid state, the quantum efficiency of TPEMBR was determined to be 31.7%.
The AIE of SITC is illustrated in FIGS. 17a and 17b. The wavelength at maximum absorption of SITC was at 363 nm and the emission maximum was at 490 nm. […] To quantify the effect of water content on the elevation of the fluorescent emission, the photoluminescence intensity of SITC was measured with concentration of water increasing from 0 to 90 vol %. With water content ranging from 0-70%, the fluorescent intensity remained at a very low level. When the water concentration was in the 80-95 vol % range, a rapid and dramatic increase of the fluorescent intensity with increasing water content was observed (FIG. 17b). The photoluminescence intensity of SITC in the water/THF solution with a water fraction of 95 vol % was approximately 50-fold higher than that in the mixture with 70% water. The quantum efficiency of SITC was 45.8% in the solid state.
(§1) Tetrahydrofuran (THF; Labscan) was distilled under nitrogen from sodium benzophenone ketyl immediately prior to use. Acrylamide was purchased from Bio-Rad. Aminoallyl-dUTP (aa-dUTP), dNTPs, DNase I (RNase-free), DNA Polymerase I, Klenow Fragment exo-, Random Hexamer Primer, Long PCR Enzyme Mix and GeneJET™ PCR Purification Kit, GeneRuler™ 100 bp Plus DNA Ladder (ready-to-use, 100-3000 bp), 6×DNA Loading Dye were purchased from Fermentas (Thermo Scientific). Deep VentR™ exo-DNA Polymerase was purchased from New England Biolabs (NEB). Synthesized oligonucleotides (primers) were purchased from Tech Drogon Limited. GelRed™ Nucleic Acid Gel Stain (10000× in water) was purchased from Biotium. Other chemicals, reagents and solvents were all purchased from Aldrich or Invitrogen. ^1H and ^13C NMR spectra were measured on a Bruker ARX 400 NMR spectrometer using CDCl3 as solvent. High-resolution mass spectra (HRMS) were taken on a Finnigan TSQ 7000 triple quadrupole spectrometer in a MALDI-TOF mode. UV spectra were measured on a Milton Roy Spectronic 3000 Array spectrophotometer. Fluorescence (FL) spectra were recorded on a Perkin-Elmer LS 55 spectrofluorometer. FL quantum yields (ΦF) of amorphous powders of siloles were measured using C-701 Time-Resolved Spectrofluorometer with the integrating sphere as accessory.
Structure of dye is confirmed by standard spectroscopic methods (FIGS. 23, 26a, and 27a). In order to confirm TPEITC is AIE-active, we investigated its fluorescence in THF/water mixtures with different water fractions. […] TPEITC molecules with hydrophobic aromatic cores precipitated and became aggregate in the nonsolvent mixture. Aggregation blocks the nonradiative relaxation channels and populates the radiative decay, thus resulting in high luminescence. […]

[3] = UV absorption of SITC for DOL calculation (Beer-Lambert law); format: physicochemical
Method: The 1061 bp template DNA was a PCR product of plasmid DNA. dTTP was replaced with increasing amount of SITC-dUTP. DOL of labeled DNA (number of dyes per 100 bases) were calculated from UV absorption base on Beer-Lambert law. The calculated molar extinction coefficient (ε) of SITC is 10277 cm^−1M^−1 and its correction factor (CF) is 2.08.

[4] = Fluorescence quantum efficiency in the solid state; format: physicochemical
Description: as §1

BSA (35 Cys) = BSA (35 Cys) (Bos taurus, UniProt P02769); assay: Fluorescent labeling of Cys residues of protein with TPEMBR, SDS-PAGE; design: species or system bovine; details: series of dye/thiol ratios
Chain of BSA (35 Cys) (P02769 25-607): as above
Method: 2.5 μL Tris-HCl (1 M), 2.5 μL TCEP (20 mM), 5 μL BSA (1 mg/mL, 15 μM), and 30 μL urea (8 M in water) was added to a 1.5 mL Eppendorf tube and mixed well. The mixture was incubated at room temperature for 30 min to pre-reduce the disulfide bonds with TCEP. Then, 10 μL of the TPEMBR DMSO stock solution (2.5 mM 5×) was added to the system and made the final volume 50 μL. The reaction mixture was incubated for 3 hours at 50° C. in an Eppendorf Thermomixer. Then, samples were cooled either to room temperature for instant use or frozen for eventual use.
In order to ensure that the Cys residues were sufficiently labeled with TPEMBR, a longer reaction time (usually overnight) at or below room temperature was required. Alternatively, the reaction time could be reduced if labeling was carried out at 50° C. To verify the time-dependence of labeling efficiency, bovine serum albumin (BSA) samples were labeled with TPEMBR for different times ranging from 10 min to 4 h and analyzed by SDS-PAGE. The fluorescence intensity of the labeled BSA increased as the reaction time was extended. The maximum intensity under specific labeling conditions was observed after 3 h and remained unchanged even with an additional 1 h of reaction time (FIGS. 11a and 11b). […] The time-dependent labeling effect provides a way to determine the desirable DOL according to different applications by simply controlling the labeling time. Meanwhile, a lower temperature labeling process with a longer reaction time could be a better choice to obtain fluorescent proteins while maintaining their native structures.
BSA samples were subjected to labeling with different dye concentrations. The SDS-PAGE fluorescence intensity of labeled BSA increased with increasing dye concentration. […] Further increasing the dye concentration could give higher fluorescence intensity due to nonspecific labeling. Clearly, the DOL of protein samples can be controlled by varying the dye concentration.
Specific labeling of Cys residues by TPEMBR was examined through the labeling of proteins with different Cys contents. BSA (35 Cys), yeast enolase (single Cys) and horse myoglobin (0 Cys) were labeled with 0.5 mM of TPEMBR, respectively. The corresponding fluorescent products were analyzed on gel. […] The results further confirmed the specificity of TPEMBR to Cys residue when the working concentration of 0.5 mM was used.
BSA was labeled by each dye with a series of varying dye/thiol ratios. After the electrophoresis, the gel fluorescent image was taken under UV excitation and the fluorescence intensity was obtained from three independent experiments. Fluorescence intensities normalized with the sample with the lowest dye concentration are plotted versus the dye/thiol ratio (FIG. 16). […] This self-quenching effect is inevitable for self-quenching dyes such as 5-BMF and limits these dyes' application on quantification of proteins. In contrast, detection and quantification of proteins with high contents of Cys can be easily achieved by using AIE active molecules such as TPEMBR.

LOD [1]: remained the same
limit of detection (LOD) [1]: 0.2 µg
Molecule: CCOc1ccc(Nc2ccc(C(=C3C=CC(=[N+](CC)Cc4cccc(S(=O)(=O)[O-])c4)C=C3)c3ccc(N(CC)Cc4cccc(S(=O)(=O)[O-])c4)cc3)cc2)cc1.[Na+] [CBB, reference compound]

fluorescence intensity (I) relative to pure THF solution (I0) ([2]; THF/water mixture, water content 90 vol %): about 36177 fold
Molecule: S=C=NCc1ccc(C(=C(c2ccccc2)c2ccccc2)c2ccccc2)cc1 [TPEITC]

self-quenching effect versus dye/thiol ratio (BSA (35 Cys)): 30 times
Molecule: O=C1OC2(c3ccc(O)cc3Oc3cc(O)ccc32)c2ccc(CBr)cc21 [5-BMF, reference compound]

More lines, now with the values behind:

Molecule: fluorescein isothiocyanate [FITC, reference compound]
self-quenching effect versus F/P ratio ([1]; prestaining): 1000 times

Molecule: C[Si]1(C)C(c2ccc(CN=C=S)cc2)=C(c2ccccc2)C(c2ccccc2)=C1c1ccc(CN=C=S)cc1 [SITC, 1,1-dimethyl-2,5-bis[4-(isothiocyanatemethyl)phenyl]-3,4-diphenyl silole]
emission maximum [2]: 490 nm
wavelength at maximum absorption [2]: 363 nm
photoluminescence intensity relative to the mixture with 70% water ([2]; water/THF solution, water fraction 95 vol %): approximately 50 fold
calculated molar extinction coefficient (ε) [3]: 10277 cm^−1M^−1
correction factor (CF) [3]: 2.08
quantum efficiency [4]: 45.8%

Molecule: S=C=NCc1ccc(C(=C(c2ccccc2)c2ccc(CN=C=S)cc2)c2ccccc2)cc1 [TPENCS, 1,2-bis[4-(isothiocyanatemethyl)phenyl]-1,2-diphenylethene]
LOD [1]: 0.1 µg
limit of detection (LOD) [1]: 0.2 µg
LOD on nitrocellulose membrane ([1]; poststaining): 1 µg
effect on protein migration ([1]; prestained versus poststained BSA bands): no significant effect on protein migration rate
LOD on nitrocellulose membrane ([1]; prestaining): 2 µg
self-quenching effect versus F/P ratio ([1]; prestaining): kept increasing
PL intensity relative to the mixture with 70% water ([2]; water/THF solution, water fraction 90 vol %): approximately 50 fold
quantum efficiency [4]: 52.2%
